# From US20220233556A1, “COMPOSITIONS AND METHODS FOR TREATING OPHTHALMIC CONDITIONS” (Medicon Pharmaceuticals, Inc., priority 2017, published 2022)
# Like-named read-outs stand apart in the source and are kept apart here.
# Columns and labels:
# [1] = Biodistribution of PS in human cadaveric eyes (ex vivo), PS HP-β-CD solution; assay type: in vitro ADME; details: human eye ex vivo
# Experimental: (§1) Human cadaveric eyes were obtained through the Lions Eye Bank for Long Island, Valley Stream, N.Y. They were preserved on ice and used within 2 h from removal from the donors.
# In another similar study, the anterior surface of the human eye was brought into direct contact with a PS HP-β-CD solution (PS concentration at 0.5%, 2.0% and 3.3%) and incubated for 10 min at 37° C. The eye was then rinsed with 10% dimethylsulfoxide (DMSO) to remove residual PS from the surface of the eye and incubated in PBS for 60 min. […] At the specified times, ocular tissues were dissected and PS levels determined by HPLC.
# [2] = Biodistribution of PS in human cadaveric eyes (ex vivo), PS nanoparticle solution; assay type: in vitro ADME; details: human eye ex vivo
# Experimental: as §1
# The anterior surface of the human eye (corresponding to an area slightly larger than the palpebral fissure) was brought into direct contact with a PS nanoparticle (NP) solution (PS concentrations were 0.2%, 1% and 2%) and treated as above for the solution formulations of PS. […]
# [3] = PS levels in ocular tissues (HPLC) after topical 3.5% PS Vitamin E TPGS solution; assay type: in vivo, New Zealand white rabbits; details: New Zealand white, rabbit, 3.5 % PS solution (eye drops)
# Experimental: Composition: 3.5% PS; 16% Vitamin E TPGS (d-α-tocopheryl polyethylene glycol 1000 succinate); 3.18% mannitol; 1.2% boric acid; 0.005% polyquaternium-1 (Polyquad). Alternatively, vitamin E TPGS may be replaced by other solubilizing agents. Polyquad is added as a preservative.
# Preparation Method: Polyquad and Vitamin E TPGS were dissolved in purified water followed by addition of PS and stirring at 70° C. for 30 min. Then the solution was centrifuged to remove non-dissolved drug particles and the supernatant was collected, to which mannitol and boric acid were added. The final volume was adjusted with purified water after adjusting the pH to 6.7±0.2 with NaOH.
# Results: The above PS formulation was administered topically as eye drops to the eyes of New Zealand white rabbits. The levels of PS in ocular tissues 1 h and 3 h later were determined by HPLC.
# TGF-β = TGF-β levels in culture medium of human conjunctival cells (ELISA); assay type: cell-based
# Experimental: FIGS. 7A and 7B illustrate that PS suppresses cytokine levels in cultured conjunctival cells and the ILG of rabbits with DED. […] Cytokine levels were determined by ELISA and represent the average of a three samples. In FIG. 7B, IL-1β and IL-8 levels were determined by ELISA in the lacrimal glands of rabbits with Con A-induced DED that were treated with vehicle or PS for one week as previously. Gland tissue was homogenized and ELISA was performed on whole-tissue lysates. n=8 glands/group. Values=mean±SEM.
# Cells were treated with PS 1×IC50 and 2 h later TNF-α was added to the medium to a final concentration of 10 ng/ml. Culture media were harvested 24 h later and the levels of TGF-β, IL-6 and IL-8 were determined by ELISA. Of note, the levels of IL-1 were below the limit of detection.
# [4] = PS biodistribution after topical alternative sodium alginate-based in-situ gel; assay type: in vivo, New Zealand white rabbits; details: New Zealand white, rabbit, 3 % PS in formulation
# Experimental: Composition: 3% PS, 1.5% sodium alginate, 15% Tween 80, 10% (2-hydroxypropyl)-β-cyclodextrin, 10% polyethylene glycol 400 (PEG400), 5% polyoxyl stearate.
# Preparation Method: A sodium alginate solution was prepared by adding an appropriate amount of sodium alginate to deionized water and heating the mixture to 90° C. with fast stirring (500 rpm). Once sodium alginate was completely dissolved, the solution was filtered through a 0.22 μm filter. Then, PS and additional excipients were added to achieve the above concentrations and stirred at 50° C. at 500 rpm until complete dissolution.
# Results: PS in this formulation was administered topically to the eyes of New Zealand white rabbits and its biodistribution was determined as above.
# [5] = Biodistribution of PS nanoparticles after intravitreal injection; assay type: in vivo, New Zealand white rabbits; details: New Zealand white, rabbit
# Experimental: Biodistribution of PS after intravitreal injection: PS formulated in nanoparticles as above was injected directly into the vitreous of New Zealand white rabbits. The biodistribution of PS in ocular tissues at the indicated time points post administration was determined by HPLC.
# [6] = aqueous humor, read-out: PS in Aqueous humor
# [7] = choroid, read-out: PS in Choroid
# [8] = conjunctiva, read-out: PS in Conjunctiva
# [9] = aqueous humor, other: intravitreal, 2% PS Nanoparticle Soln., read-out: PS in Aqueous humor
# [10] = cornea, other: intravitreal, 0.2% PS Nanoparticle Soln., read-out: PS in Cornea
# [11] = cornea, other: intravitreal, 2% PS Nanoparticle Soln., read-out: PS in Cornea
# [12] = retina, other: intravitreal, 0.2% PS Nanoparticle Soln., read-out: PS in Retina
# [13] = retina, other: intravitreal, 2% PS Nanoparticle Soln., read-out: PS in Retina
# [14] = sclera, other: intravitreal, 2% PS Nanoparticle Soln., read-out: PS in Sclera
# [15] = vitreous body, other: intravitreal, 0.2% PS Nanoparticle Soln., read-out: PS in Vitreous body
smiles,measurement,setting,value
"CCOP(=O)(OCC)OCCCCOC(=O)CC1=C(C)/C(=C/c2ccc([S+](C)[O-])cc2)c2ccc(F)cc21 (stereo not shown) [PS, phosphosulindac]",PS in Aqueous,[1]; 0.5% PS HP-β-CD solution,2.4 µM
same,PS in Lens,[1]; 0.5% PS HP-β-CD solution,0.6 µM
same,PS in Retina,[1]; 0.5% PS HP-β-CD solution,2.9 µM
same,PS in Vitreous,[1]; 0.5% PS HP-β-CD solution,0.3 µM
same,PS in Lens,[1]; 2.0% PS HP-β-CD solution,1.4 µM
same,PS in Lens,[1]; 3.3% PS HP-β-CD solution,1.9 µM
same,PS in Vitreous,[1]; 3.3% PS HP-β-CD solution,4.3 µM
same,PS in Cornea,[2]; 0.2% PS-NPs,22.8 µM
same,PS in Iris,[2]; 0.2% PS-NPs,8.0 µM
same,PS in Lens,[2]; 0.2% PS-NPs,0.4 µM
same,PS in Retina,[2]; 0.2% PS-NPs,2.2 µM
same,PS in Sclera,[2]; 0.2% PS-NPs,30.7 µM
same,PS in Cornea,[2]; 1% PS-NPs,58.8 µM
same,PS in Iris,[2]; 1% PS-NPs,35.5 µM
same,PS in Lens,[2]; 1% PS-NPs,1.6 µM
same,PS in Retina,[2]; 1% PS-NPs,4.8 µM
same,PS in Sclera,[2]; 1% PS-NPs,152.0 µM
same,PS in Cornea,[2]; 2% PS-NPs,92.7 µM
same,PS in Iris,[2]; 2% PS-NPs,17.4 µM
same,PS in Lens,[2]; 2% PS-NPs,0.6 µM
same,PS in Retina,[2]; 2% PS-NPs,1.2 µM
same,PS in Sclera,[2]; 2% PS-NPs,113.0 µM
same,concentration at 1 h,[3]; [6],2300 nM
same,concentration at 3 h,[3]; [6],100 nM
same,concentration at 1 h,[3]; [7],3200 nM
same,concentration at 3 h,[3]; [7],200 nM
same,concentration at 1 h,[3]; [8],9300 nM
same,concentration at 3 h,[3]; [8],500 nM
same,concentration at 1 h,"[3]; cornea, read-out: PS in Cornea",6900 nM
same,concentration at 3 h,"[3]; cornea, read-out: PS in Cornea",800 nM
same,concentration at 3 h,"[3]; iris, read-out: PS in Iris",900 nM
same,concentration at 3 h,"[3]; lacrimal gland, read-out: PS in Lacrimal gland",500 nM
same,concentration at 1 h,"[3]; lens, read-out: PS in Lens",1800 nM
same,concentration at 3 h,"[3]; lens, read-out: PS in Lens",100 nM
same,concentration at 1 h,"[3]; retina, read-out: PS in Retina",2700 nM
same,concentration at 3 h,"[3]; retina, read-out: PS in Retina",200 nM
same,concentration at 1 h,"[3]; sclera, read-out: PS in Sclera",2300 nM
same,concentration at 3 h,"[3]; sclera, read-out: PS in Sclera",200 nM
same,concentration at 1 h,"[3]; vitreous body, read-out: PS in Vitreous body",3600 nM
same,reduction of TNF-α-stimulated TGF-β levels,"TGF-β; PS 1×IC50, TNF-α 10 ng/ml, 24 h",19%
same,reduction of unstimulated TGF-β levels,"TGF-β; PS 1×IC50, not statistically significant",4.7%
same,concentration at 1 h,[4]; [6],0.4 µM
same,concentration at 1 h,[4]; [8],4.9 µM
same,concentration at 3 h,[4]; [8],2.1 µM
same,concentration at 5 h,[4]; [8],2300 nM
same,concentration at 8 h,"[4]; conjunctiva, 8 h",1300 nM
same,concentration at 1 h,"[4]; cornea, read-out: PS in Cornea",17.8 µM
same,concentration at 3 h,"[4]; cornea, read-out: PS in Cornea",5 µM
same,concentration at 5 h,"[4]; cornea, read-out: PS in Cornea",1000 nM
same,concentration at 0.5 h,"[5]; aqueous humor, other: intravitreal, 0.2% PS Nanoparticle Soln., read-out: PS in Aqueous humor",0 µM
same,concentration at 0.5 h,[5]; [9],0 µM
same,concentration at 1 h,[5]; [9],1.3 µM
same,concentration at 0.5 h,[5]; [10],23.5 µM
same,concentration at 1 h,[5]; [10],22.4 µM
same,concentration at 0.5 h,[5]; [11],187 µM
same,concentration at 1 h,[5]; [11],147 µM
same,concentration at 0.5 h,[5]; [12],187 µM
same,concentration at 1 h,[5]; [12],109 µM
same,concentration at 0.5 h,[5]; [13],376 µM
same,concentration at 1 h,[5]; [13],220 µM
same,concentration at 0.5 h,"[5]; sclera, other: intravitreal, 0.2% PS Nanoparticle Soln., read-out: PS in Sclera",39.8 µM
same,concentration at 0.5 h,[5]; [14],224 µM
same,concentration at 1 h,[5]; [14],180 µM
same,concentration at 0.5 h,"[5]; vitreous body, other: intravitreal injection, 2 % PS (nanoparticle solution; injected volume not stated), 2% PS Nanoparticle Soln., read-out: PS in Vitreous body",125 µM
same,concentration at 0.5 h,[5]; [15],198 µM
same,concentration at 1 h,[5]; [15],56.2 µM
same,concentration at 1 h,"[5]; vitreous body, other: intravitreal, 2% PS Nanoparticle Soln., read-out: PS in Vitreous body",34 µM
